Measurements as given in PubChem BioAssay (NCI).
“And” between values parts separate entries of the source, which are not always exact repeats. Equal entries are not always repeated.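 All cell lines were grown in 96-well plates and treated with compound for 48 hours. GI50 marks 50% less growth. Definition used: TGI = concentration required for complete inhibition of growth.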

Columns and labels:
Test in all cases: growth of human tumour cells (NCI), 48 h
OVCAR-5 ovarian = test system: OVCAR-5 ovarian
UACC-62 melanoma = test system: UACC-62 melanoma
UO-31 renal = test system: UO-31 renal
OVCAR-8 ovarian = test system: OVCAR-8 ovarian
NCI-H460 lung = test system: NCI-H460 lung
HCC-2998 colon = test system: HCC-2998 colon
SW-620 colon = test system: SW-620 colon
HS 578T breast = test system: HS 578T breast
EKVX NSCLC = test system: EKVX NSCLC
HOP-62 NSCLC = test system: HOP-62 NSCLC

Row | SMILES | GI50 (OVCAR-5 ovarian) [µM] | TGI (OVCAR-5 ovarian) | GI50 (UACC-62 melanoma) [µM] | TGI (UACC-62 melanoma) | GI50 (UO-31 renal) [µM] | TGI (UO-31 renal) | GI50 (OVCAR-8 ovarian) [µM] | TGI (OVCAR-8 ovarian) | GI50 (NCI-H460 lung) [µM] | TGI (NCI-H460 lung) | GI50 (HCC-2998 colon) [µM] | TGI (HCC-2998 colon) | GI50 (SW-620 colon) [µM] | TGI (SW-620 colon) [µM] | GI50 (HS 578T breast) [µM] | TGI (HS 578T breast) [µM] | GI50 (EKVX NSCLC) [µM] | TGI (EKVX NSCLC) [µM] | GI50 (HOP-62 NSCLC) [µM] | TGI (HOP-62 NSCLC)
1 | C=CCC(N[C@H](CO)C(C)C)c1cn(C(=O)OCC)c2ccccc12 (some centres not stated) | 48.6 | > 100 µM | 22.7 | 54.8 µM | 45.2 | > 100 µM | 21.7 | 48.2 µM | 32.4 | > 100 µM | 17 | 33.6 µM | 27.9 | > 100 | 22.7 | > 100 | 22.9 | 77 | 28.6 | 89.1 µM
2 | CC[C@](C)(O)C(=O)O[C@H]1C(=O)O[C@@H]2C[C@H]3C(C)=CC(=O)[C@@H](O)[C@]3(C)[C@H]3[C@@]4(O)OC[C@]32[C@@H]1[C@@H](C)[C@H]4O | 0.762 | 8.16 µM and 6.86 µM | 0.149 | 0.705 µM and 0.178 µM | 0.662 | 3.71 µM and 3.78 µM | 0.164 | 1.74 µM and 0.541 µM | 0.184 | 1.12 µM and 0.327 µM | 0.12 | 0.469 µM and 0.316 µM | 0.216 | – | – | 4.44 | 1.61 | – | 0.165 | 1.19 µM and 0.368 µM
3 | Nc1ncnc2sc(=S)c3c(c12)CCC3 | 42 | > 100 µM | 27.8 | 85.2 µM | 43.8 | > 100 µM | 37.7 | > 100 µM | 35.1 | > 100 µM | 35 | > 100 µM | 33.5 | > 100 | 34.5 | 99.7 | 18.9 | 58.8 | 46.4 | > 100 µM
4 | CC1(C)CCC2(C(=O)OC3OC(CO)C(O)C(O)C3O)CC[C@]3(C)C(=CCC4C5(C)CC[C@H](OC6OC(C(=O)O)C(O)C(O)C6O)C(C)(C)C5CCC43C)C2C1 (some centres not stated) | 3.07 | 9.41 µM | 0.887 | 1.92 µM | 12.7 | 31.8 µM | 4.28 | 18.1 µM | 2.51 | > 50 µM | 0.89 | 1.64 µM | 1.93 | 8.87 | 1.62 | 4.51 | 3.39 | 36.6 | 2.22 | 7.6 µM
5 | O=C(O)CSSCC(=O)O | – | > 100 µM | – | > 100 µM | – | > 100 µM | – | > 100 µM | – | > 100 µM | – | > 100 µM | – | > 100 | – | > 100 | – | > 100 | – | > 100 µM
